Patent publication US8772235B2, “Compounds having peptides conjugated to bone targeting moieties and methods of making and using thereof” (The Governors of the University of Alberta, priority 2009, dated 2014)

Assays:
[1] = Bone mineral specificity: calcium carbonate binding assay; settings: 1 h, 100 mM phosphate buffer pH 7
Protocol: (§1) Bone targeting potential of sCT analogue was evaluated by determining the effect of sCT modification (due to chemical coupling) upon its bone mineral affinity. Specific volume of purified sCT analogue solution containing 10 μg of sCT was mixed with 1 mg Hydroxyapatite (HA) in 150 μL 100 mM phosphate buffer (pH 7.0) in microcentrifuge tubes in duplicate to give a final concentration of 66.67 μg/ml sCT. As a reference, control samples were incubated in tubes without HA (i.e., 0% of binding).
(§2) The tubes were incubated at room temperature on a shaker for 1 h, and centrifuged at 5000 g for 5 minutes to separate the HA from the supernatant. sCT concentration in the supernatant was determined using the BCA microprotein assay (Pierce, USA) as described above. HA centrifugate remaining after removal of supernatant was washed five times using 1 mL buffer each time and the last washing after centrifugation at 5000 g for 5 minutes was collected. Both the washings and the HA centrifugate were then analyzed for sCT as described above. The amount of sCT in the supernatant, washings and HA centrifugate was then inferred by measuring the absorbance at 562 nm, with a value of 100% for control samples without HA.
(§3) Bone mineral specificity of sCT analogue was then determined in the above manner using HA, calcium carbonate, calcium pyrophosphate, tricalcium phosphate and calcium oxalate.

[2] = Bone mineral specificity: tri-calcium phosphate binding assay; settings: 1 h, 100 mM phosphate buffer pH 7
Protocol: as §1, §2, §3

[3] = Effect on plasma calcium level in normal rats (SMCC series); type: in vivo, rat; settings: 20 IU sCT/kg equivalent, subcutaneous
Protocol: Pharmacodynamic response of sCT analogue was evaluated by analyzing plasma calcium concentration in the rat model. Sprague Dawley female rats weighing 230-260 g (about 6 weeks old) were purchased from Charles River, USA and housed at the University of Alberta Animal Holding Unit. All experimental protocols were approved by the Animals Ethics Committee of the University of Alberta. The rats were divided randomly into five groups of 3 animals each and the pharmacodynamic response was assessed following subcutaneous administration of the sCT or analogue equivalent to 20 IU sCT/kg body weight. Rats were anesthetized using Isoflurane inhalation anesthesia and the 200 μl blood samples were obtained in heparinized Eppendorf microtubes before drug injection. Then 100 μl of sCT or equivalent dose in 20 mM Sodium Acetate buffer pH 5 was sub cu injected and the blood samples were collected 1, 2, 3 and 4 hrs post injection from jugular vein. Blood plasma was obtained by centrifuging the samples at 5000 rpm for 10 min and collecting the supernatant. Plasma calcium level was assayed by QuantiChrom™ Calcium Assay Kit (BioAssay Systems, CA USA) and the plasma phosphate level was assayed by QuantiChrom™ Phosphate Assay Kit (BioAssay Systems, CA USA).

[4] = Bone mineral specificity: calcium oxalate binding assay; settings: 1 h, 100 mM phosphate buffer pH 7
Protocol: as §1, §2, §3

With “Salmon calcitonin [sCT, reference compound]” the “sCT concentration in supernatant after incubation with Calcium carbonate” value [1] was “did not significantly reduce the sCT concentration in the supernatant”, the “sCT bound to Tri-Calcium Phosphate” value [2] was “no significant difference in the affinity” and the “percentage of plasma calcium reduction” value ([3]; 4 hour post dosing) was 32.03±2.11%. For the same substance, the “percentage of plasma calcium reduction” value ([3]; first hour, vs acetate buffer controls) was 20.33±5.5%, the “percentage of plasma calcium reduction” value ([3]; second hour) was 28.98±4.65% and the “percentage of plasma calcium reduction” value ([3]; third hour) was 29.85±4.11%. The “sCT recovered in supernatant after incubation with Calcium oxalate” value [4] was “did not significantly reduce the sCT concentration in the supernatant”.
